In article PMC12627933, “A First-In-Human Study of the SUMOylation Inhibitor Subasumstat in Patients with Advanced/Metastatic Solid Tumors or Relapsed/Refractory Hematologic Malignancies” (Cancer Research Communications, 2025):

Tests used:
SUMO2/3 conjugates = experiment: SUMOylation pathway inhibition: decrease in SUMO2/3 conjugates in blood lymphocytes, skin and tumor; type: in vivo, human
Method: (§1) Blood samples for subasumstat–SUMO adduct formation and SUMO2/3 inhibition assessments were collected before dose and at 1, 4, and 8 hours after the infusion on C1D1 and C1D8. Blood samples for additional biomarker analyses were collected before dose on C1D1 and C1D8 and at 4, 8, and 24 hours after infusion on C1D1 and C1D8. Skin biopsies (used as surrogate tissue for solid tumors) were collected at screening and on C1D8 at 2 hours (±30 minutes) after end of infusion, and tumor biopsies were collected at screening and cycle 2 day 8 (C2D8; +7 days; whenever possible). In blood samples, a custom flow cytometry assay was utilized for detecting target engagement and SUMOylated protein levels in lymphocytes (including T-, B-, and NK-cell subsets). The assay included a PE-conjugated antibody specifically recognizing the SUMO–subasumstat adduct (MIL-113, anti–cysteinyl-TAK-981, Epitomics; refs. [14], [15], [22]) and an AF488-conjugated antibody recognizing SUMO2/3 conjugates (MBL International, cat. #M114-3, RRID: AB_592769). Peripheral blood cells were lysed/fixed, permeabilized (BD Biosciences), and stained with MIL-113 and M114-3 and with antibodies against CD45, CD3, CD19, CD16/CD56, and CD14. IHC assays for SUMO–subasumstat adduct and SUMO2/3 inhibition in skin biopsies and tumors were performed using MIL-113 and M114-3 antibodies. Activation of the IFNI pathway was assessed in peripheral blood by analysis of gene expression data (PanCancer IO 360 panel by NanoString for phase I and whole-transcriptome RNA sequencing data for phase II). Type I IFN gene signature was computed using geometric mean of the following genes: CCL2, CXCL10, DDX58, IRF7, ISG15, STAT1, and STAT2. These seven IFNI-regulated genes were selected prior to the trial, based on in vitro studies of the effect of subasumstat on human blood from 10 healthy donors analyzed on the NanoString PanCancer IO 360 panel. Plasma chemokines and cytokines were measured using the MesoScale Discovery platform (pro-inflammatory and chemokine panels, BioAgilytix). For assessment of NK- and T-cell activation, cells were suspended in buffer and incubated with the following monoclonal antibodies: APC-H7 mouse anti–human CD45 (BD Biosciences, cat. #560274), APC mouse anti–human CD69 (BD Biosciences, cat. #555533), BV421 mouse anti–human CD56 (BD Biosciences, cat. #562751), mouse anti–human CD16 PerCP-Cy5.5 (BD Biosciences, cat. #338440), BV510 mouse anti–human CD4 (BD Biosciences, cat. #563094), BV605 mouse anti–human CD8 (BD Biosciences, cat. #564116), and Alexa Fluor 700 anti–mouse CD3 antibody (BioLegend, cat. #100215), prior to assessment by flow cytometry using the BD Scientific FACSCanto flow cytometer (RRID: SCR_018055). Tumor PD-L1 expression level was assessed in paired tumor biopsies using the 22C3 PD-L1 IHC assay; combined positive score (CPS) was calculated for baseline and on-treatment tumor samples. The immune landscape in the tumor microenvironment (TME) was assessed using an integrated RNAscope and 27-marker MultiOmyx immunofluorescence panel.

macrophages and NK cells = test system: macrophages and NK cells; parameters: method as in PMID 35226739; details: IFNI-dependent innate immune activation; cited from earlier work
relapsed/refractory NHL = test system: relapsed/refractory NHL; parameters: method as in ref 19 = [19]; 19. Assouline S , Mehta A , Phillips T , Alinari L , Danilov AV , Doucet S , . TAK-981, a first-in-class SUMO-activating enzyme inhibitor, combined with rituximab in adult patients (Pts) with CD20-pos; details: in combination with rituximab; 24 patients with relapsed/refractory NHL; cited from earlier work
[1] = test system: lymphoma and pancreatic cancer xenografts; parameters: method as in PMID 33631934; details: cited from earlier work
IFNI pathway = IFNI pathway activation: IFNI gene signature in peripheral blood and plasma CXCL-10 (IP-10); type: in vivo, human
Method: as §1, with “IHC assays for SUMO–subasumstat adduct and SUMO2/3 inhibition in skin biopsies and tumors were performed using MIL-113 and M114-3 antibodies.” left out, “Type I IFN gene signature was computed using geometric mean of the following genes: CCL2, CXCL10, DDX58, IRF7, ISG15, STAT1, and STAT2.” left out, “For assessment of NK- and T-cell activation, cells were suspended in buffer and incubated with the following monoclonal antibodies: APC-H7 mouse anti–human CD45 (BD Biosciences, cat. #560274), APC mouse anti–human CD69 (BD Biosciences, cat. #555533), BV421 mouse anti–human CD56 (BD Biosciences, cat. #562751), mouse anti–human CD16 PerCP-Cy5.5 (BD Biosciences, cat. #338440), BV510 mouse anti–human CD4 (BD Biosciences, cat. #563094), BV605 mouse anti–human CD8 (BD Biosciences, cat. #564116), and Alexa Fluor 700 anti–mouse CD3 antibody (BioLegend, cat. #100215), prior to assessment by flow cytometry using the BD Scientific FACSCanto flow cytometer (RRID: SCR_018055).” left out

[2] = test system: tumor microenvironment (TME); parameters: method as in PMID 37389981; details: intratumor microdosing; cited from earlier work

## Cc1sc(C(=O)c2cncnc2N[C@@H]2C[C@H](COS(N)(=O)=O)[C@@H](O)C2)cc1[C@@H]1NCCc2ccc(Cl)cc21 [subasumstat]
SUMO2/3 conjugates; peripheral blood lymphocytes
  Duration of SUMO2/3 inhibition: at least 8 hours
  Time to SUMO2/3 inhibition after end of infusion: ≤ 1 h
SUMO2/3 conjugates; peripheral blood lymphocytes, dose-dependent
  Dose from which SUMO2/3 inhibition was observed: ≥ 40 mg
SUMO2/3 conjugates; post-dose tumor samples, except two MSS colorectal cancer and one NSCLC patient
  SUMO2/3 inhibition in tumor samples: observed in most post-dose samples
SUMO2/3 conjugates; skin biopsies on C1D8
  Dose from which reduced SUMO2/3 levels were observed in skin: ≥ 60 mg
Macrophages and NK cells
  Killing of tumor cell targets: enhanced killing of tumor cell targets
relapsed/refractory NHL
  ORR: 29%
[1]; immunocompromised mice
  Antitumor activity: shows antitumor activity
[1]; xenograft models
  SUMOylation in tumors: inhibits SUMOylation in tumors
IFNI pathway; both dosing schedules, phase I, dose-dependent
  Dose from which IFNI gene signature and plasma CXCL-10 (IP-10) were upregulated: ≥ 40 mg
IFNI pathway; both markers
  Recovery of IFNI gene signature and IP-10: returned to baseline levels before dose on C1D8
IFNI pathway; plasma
  Time to increase of IP-10 plasma concentration after end of infusion: ≤ 24 h
[2]
  Modulation of the TME: modulate the TME from an immune-suppressive to an immune-permissive status
